{"source": "paper PMC5218480", "about": "(PLoS ONE, 2017)", "test_system": "MV-4-11 cells", "assay": "Gene expression microarray analysis (Affymetrix PrimeView) and GSEA", "format": "cell-based, human", "design": "RFU PODN (11730768_x_at) / Fold change /veh PODN (11730768_x_at) / RFU LINC00158 (11744669_a_at) / Fold change /veh LINC00158 (11744669_a_at) / RFU DUSP10 (11751237_a_at) / Fold change /veh DUSP10 (11751237_a_at) / RFU ID3 (11757404_x_at) / Fold change /veh ID3 (11757404_x_at) / RFU PLEKHG5 (11737974_s_at) / Fold change /veh PLEKHG5 (11737974_s_at) / RFU LRRC4B (11730491_at) / Fold change /veh LRRC4B (11730491_at) / RFU GIMAP4 (11747438_a_at) / Fold change /veh GIMAP4 (11747438_a_at) / RFU KRT8 (11758183_x_at) / Fold change /veh KRT8 (11758183_x_at) / RFU CNN1 (11734310_a_at) / Fold change /veh CNN1 (11734310_a_at) / RFU VPS37D (11726825_at) / Fold change /veh VPS37D (11726825_at) / RFU C10orf10 (11716522_x_at) / Fold change /veh C10orf10 (11716522_x_at) / RFU KIR2DL2 /// KIR2DL4 /// KIR2DL5A /// KIR2DL5B /// KIR2DS1 /// KIR2DS2 /// KIR2DS3 /// KIR2DS4 /// KIR3DL3 /// KIR3DL3 /// KIR3DS1 (11738374_at) / Fold change /veh KIR2DL2 /// KIR2DL4 /// KIR2DL5A /// KIR2DL5B /// KIR2DS1 /// KIR2DS2 /// KIR2DS3 /// KIR2DS4 /// KIR3DL3 /// KIR3DL3 /// KIR3DS1 (11738374_at) / RFU C1QL1 (11718748_at) / Fold change /veh C1QL1 (11718748_at) / RFU TMPRSS4 (11747572_a_at) / Fold change /veh TMPRSS4 (11747572_a_at) / RFU HAMP (11756126_x_at) / Fold change /veh HAMP (11756126_x_at) / RFU RNFT2 (11725882_a_at) / Fold change /veh RNFT2 (11725882_a_at) / RFU NR4A2 (11747474_a_at) / Fold change /veh NR4A2 (11747474_a_at) / RFU ABCC12 (11746883_a_at) / Fold change /veh ABCC12 (11746883_a_at) / RFU TMEM136 (11760407_x_at) / Fold change /veh TMEM136 (11760407_x_at) / RFU CLDN22 /// WWC2 (11732394_at) / Fold change /veh CLDN22 /// WWC2 (11732394_at) / RFU HLA-DPB1 (11760878_x_at) / Fold change /veh HLA-DPB1 (11760878_x_at) / RFU SPINT1 (11716480_a_at) / Fold change /veh SPINT1 (11716480_a_at) / RFU GAP43 (11754022_s_at) / Fold change /veh GAP43 (11754022_s_at) / RFU A4GNT (11735810_at) / Fold change /veh A4GNT (11735810_at) / RFU PRB3 (11715151_x_at) / Fold change /veh PRB3 (11715151_x_at) / RFU TUBB4B (11761932_at) / Fold change /veh TUBB4B (11761932_at) / RFU CAPN14 (11732068_a_at) / Fold change /veh CAPN14 (11732068_a_at) / RFU TMCC2 (11721928_a_at) / Fold change /veh TMCC2 (11721928_a_at) / RFU IRGQ (11745062_a_at) / Fold change /veh IRGQ (11745062_a_at) / RFU FAM174B (11720279_a_at) / Fold change /veh FAM174B (11720279_a_at) / RFU TMPRSS4 (11748680_a_at) / Fold change /veh TMPRSS4 (11748680_a_at) / RFU FAM212B (11763350_a_at) / Fold change /veh FAM212B (11763350_a_at) / RFU PLEKHG5 (11743358_a_at) / Fold change /veh PLEKHG5 (11743358_a_at) / RFU ZSCAN30 (11745921_a_at) / Fold change /veh ZSCAN30 (11745921_a_at) / RFU CMKLR1 (11741424_a_at) / Fold change /veh CMKLR1 (11741424_a_at) / RFU LOC101060620 /// MAPK8IP1 (11723275_at) / Fold change /veh LOC101060620 /// MAPK8IP1 (11723275_at) / RFU SPTSSB (11747773_x_at) / Fold change /veh SPTSSB (11747773_x_at) / RFU PRSS12 (11739890_at) / Fold change /veh PRSS12 (11739890_at) / RFU BIN1 (11741810_x_at) / Fold change /veh BIN1 (11741810_x_at) / RFU WNT11 (11732464_a_at) / Fold change /veh WNT11 (11732464_a_at) / RFU C10orf10 (11716521_a_at) / Fold change /veh C10orf10 (11716521_a_at) / RFU C5orf56 (11738089_at) / Fold change /veh C5orf56 (11738089_at) / RFU CYB561 (11721691_x_at) / Fold change /veh CYB561 (11721691_x_at) / RFU ANKRD19P (11752326_a_at) / Fold change /veh ANKRD19P (11752326_a_at) / RFU OR2T12 /// OR2T33 /// OR2T8 (11738714_s_at) / Fold change /veh OR2T12 /// OR2T33 /// OR2T8 (11738714_s_at) / RFU VCAN (11748164_a_at) / Fold change /veh VCAN (11748164_a_at) / RFU JSRP1 (11732532_at) / Fold change /veh JSRP1 (11732532_at) / RFU KRTAP10-11 (11738290_x_at) / Fold change /veh KRTAP10-11 (11738290_x_at) / RFU MYO3A (11730013_a_at) / Fold change /veh MYO3A (11730013_a_at) / RFU EBF3 (11725865_a_at) / Fold change /veh EBF3 (11725865_a_at) / RFU CAMK2N1 (11719241_x_at) / Fold change /veh CAMK2N1 (11719241_x_at) / RFU C5orf56 (11738088_a_at) / Fold change /veh C5orf56 (11738088_a_at) / RFU OLFML3 (11715873_a_at) / Fold change /veh OLFML3 (11715873_a_at) / RFU LOC100653217 /// NTM (11731650_a_at) / Fold change /veh LOC100653217 /// NTM (11731650_a_at) / RFU MAPK11 (11762145_a_at) / Fold change /veh MAPK11 (11762145_a_at) / RFU FIZ1 (11724087_x_at) / Fold change /veh FIZ1 (11724087_x_at) / RFU OASL (11726364_x_at) / Fold change /veh OASL (11726364_x_at) / RFU SOX15 (11748057_x_at) / Fold change /veh SOX15 (11748057_x_at) / RFU CD79A (11719716_a_at) / Fold change /veh CD79A (11719716_a_at) / RFU HIST1H1D (11736915_at) / Fold change /veh HIST1H1D (11736915_at) / RFU CASKIN2 (11723855_a_at) / Fold change /veh CASKIN2 (11723855_a_at) / RFU LOC730098 (11760151_x_at) / Fold change /veh LOC730098 (11760151_x_at) / RFU OR4N2 (11742367_at) / Fold change /veh OR4N2 (11742367_at) / RFU PRRT2 (11749266_a_at) / Fold change /veh PRRT2 (11749266_a_at) / RFU SNX32 (11753110_a_at) / Fold change /veh SNX32 (11753110_a_at) / RFU CDHR5 (11726645_a_at) / Fold change /veh CDHR5 (11726645_a_at) / RFU RCAN1 (11760418_a_at) / Fold change /veh RCAN1 (11760418_a_at) / RFU FAM167A (11723789_a_at) / Fold change /veh FAM167A (11723789_a_at) / RFU FAM26E (11764081_at) / Fold change /veh FAM26E (11764081_at) / RFU ISYNA1 (11749810_s_at) / Fold change /veh ISYNA1 (11749810_s_at) / RFU ACY1 (11761880_at) / Fold change /veh ACY1 (11761880_at) / RFU 11764098_at / Fold change /veh 11764098_at / RFU SAMD14 (11745864_x_at) / Fold change /veh SAMD14 (11745864_x_at) / RFU NPB (11741838_a_at) / Fold change /veh NPB (11741838_a_at) / RFU TMPRSS6 (11731388_a_at) / Fold change /veh TMPRSS6 (11731388_a_at) / RFU KRTAP10-2 (11738614_at) / Fold change /veh KRTAP10-2 (11738614_at) / RFU ARHGAP8 /// PRR5-ARHGAP8 (11727945_x_at) / Fold change /veh ARHGAP8 /// PRR5-ARHGAP8 (11727945_x_at) / RFU KRTAP5-7 /// NADSYN1 (11734609_at) / Fold change /veh KRTAP5-7 /// NADSYN1 (11734609_at) / RFU RASL12 (11751679_a_at) / Fold change /veh RASL12 (11751679_a_at) / RFU CDKN2B (11736163_a_at) / Fold change /veh CDKN2B (11736163_a_at) / RFU PRF1 (11729649_at) / Fold change /veh PRF1 (11729649_at) / RFU, ZNF638 /// ZNF638-IT1 / Fold change vs veh, ZNF638 /// ZNF638-IT1 / RFU, PANK3 / Fold change vs veh, PANK3 / RFU, SH3YL1 / Fold change vs veh, SH3YL1 / RFU, ZEB2 / Fold change vs veh, ZEB2 / RFU, NRIP1 / Fold change vs veh, NRIP1 / RFU, PTTG1IP / Fold change vs veh, PTTG1IP / RFU, CAPN2 / Fold change vs veh, CAPN2 / RFU, MED14 / Fold change vs veh, MED14 / RFU, SNORA58 / Fold change vs veh, SNORA58 / RFU, C1orf63 / Fold change vs veh, C1orf63 / RFU, LRRFIP1 / Fold change vs veh, LRRFIP1 / RFU, NDUFAF7 / Fold change vs veh, NDUFAF7 / RFU, SLC12A2 / Fold change vs veh, SLC12A2 / RFU, IBTK / Fold change vs veh, IBTK / RFU, ESF1 / Fold change vs veh, ESF1 / Fold change vs veh, TMEM50B / RFU, TAOK1 / Fold change vs veh, TAOK1 / RFU, ACBD3 / Fold change vs veh, ACBD3 / RFU, TMA16 / Fold change vs veh, TMA16 / RFU, RWDD3 / Fold change vs veh, RWDD3 / RFU, BCAT1 / Fold change vs veh, BCAT1 / RFU, EDEM3 / Fold change vs veh, EDEM3 / RFU, TMEM33 / Fold change vs veh, TMEM33 / RFU, WDR75 / Fold change vs veh, WDR75 / RFU, AHCTF1 / Fold change vs veh, AHCTF1 / RFU, TFRC / Fold change vs veh, TFRC / RFU, ZDHHC17 / Fold change vs veh, ZDHHC17 / RFU, NOM1 / Fold change vs veh, NOM1 / RFU, ARL8B / Fold change vs veh, ARL8B / RFU, ZBTB11 / Fold change vs veh, ZBTB11 / RFU, TAMM41 / Fold change vs veh, TAMM41 / RFU, KIAA1704 /// LOC100996395 / Fold change vs veh, KIAA1704 /// LOC100996395 / RFU, ING1 / Fold change vs veh, ING1 / RFU, TRMT61B / Fold change vs veh, TRMT61B / RFU, FUBP3 / Fold change vs veh, FUBP3 / RFU, TP53 / Fold change vs veh, TP53 / RFU, TNKS2 / Fold change vs veh, TNKS2 / RFU, ZFP14 / Fold change vs veh, ZFP14 / RFU, ACTR2 / Fold change vs veh, ACTR2 / RFU, PPP3R1 / Fold change vs veh, PPP3R1 / RFU, PIK3R1 / Fold change vs veh, PIK3R1 / RFU, HNRNPA1 / Fold change vs veh, HNRNPA1 / RFU, RNF170 / Fold change vs veh, RNF170 / RFU, ZNF28 / Fold change vs veh, ZNF28 / RFU, RNGTT / Fold change vs veh, RNGTT / RFU, OGT / Fold change vs veh, OGT / RFU, BRD1 / Fold change vs veh, BRD1 / RFU, MARS / Fold change vs veh, MARS / RFU, ZNF655 / Fold change vs veh, ZNF655 / RFU, FAHD1 / Fold change vs veh, FAHD1 / RFU, BDP1 / Fold change vs veh, BDP1 / RFU, LRRCC1 / Fold change vs veh, LRRCC1 / RFU, ARID1A / Fold change vs veh, ARID1A / RFU, ZNF146 / Fold change vs veh, ZNF146 / RFU, ZNF330 / Fold change vs veh, ZNF330 / RFU, GPN3 / Fold change vs veh, GPN3 / RFU, C9orf123 / Fold change vs veh, C9orf123 / RFU, N4BP2L2 / Fold change vs veh, N4BP2L2 / RFU, ARFIP1 / Fold change vs veh, ARFIP1 / RFU, FAM179B / Fold change vs veh, FAM179B / RFU, BCL10 / Fold change vs veh, BCL10 / RFU, UHRF1BP1L / Fold change vs veh, UHRF1BP1L / RFU, BET1 / Fold change vs veh, BET1 / RFU, CNOT2 / Fold change vs veh, CNOT2 / RFU, ZNF268 / Fold change vs veh, ZNF268 / Fold change vs veh, ZNF507 / RFU, DGCR2 / Fold change vs veh, DGCR2 / RFU, WDSUB1 / Fold change vs veh, WDSUB1 / Fold change vs veh, HSP90B1 /// MIR3652 / RFU, ADSS / Fold change vs veh, ADSS / RFU, GK / Fold change vs veh, GK / RFU, ZNF148 / Fold change vs veh, ZNF148 / RFU, TAF9 / Fold change vs veh, TAF9 / RFU, SLC1A5 / Fold change vs veh, SLC1A5 / RFU, SLMO2 / Fold change vs veh, SLMO2 / RFU, ABCC4 / Fold change vs veh, ABCC4 / RFU, LOC101060439 /// RAP1B / Fold change vs veh, LOC101060439 /// RAP1B / RFU, RFX7 / Fold change vs veh, RFX7 / RFU, GTPBP10 / Fold change vs veh, GTPBP10 / RFU, CNEP1R1 / Fold change vs veh, CNEP1R1 / RFU, BIVM-ERCC5 /// ERCC5 / Fold change vs veh, BIVM-ERCC5 /// ERCC5 / RFU, ILF3 / Fold change vs veh, ILF3 / RFU 11762660_at / Fold change /veh 11762660_at / RFU VCAN (11757783_s_at) / Fold change /veh VCAN (11757783_s_at) / RFU DDX43 (11728927_at) / Fold change /veh DDX43 (11728927_at) / RFU KRT8 (11758188_x_at) / Fold change /veh KRT8 (11758188_x_at) / RFU NKD1 (11759106_at) / Fold change /veh NKD1 (11759106_at) / RFU SRD5A1 (11742802_a_at) / Fold change /veh SRD5A1 (11742802_a_at) / RFU TPSAB1 /// TPSB2 (11721975_s_at) / Fold change /veh TPSAB1 /// TPSB2 (11721975_s_at) / RFU GSTM3 (11746129_a_at) / Fold change /veh GSTM3 (11746129_a_at) / RFU IL23R (11737362_x_at) / Fold change /veh IL23R (11737362_x_at) / RFU TMEM51 (11727254_a_at) / Fold change /veh TMEM51 (11727254_a_at) / RFU PIWIL2 (11732686_x_at) / Fold change /veh PIWIL2 (11732686_x_at) / RFU ORM1 (11744905_x_at) / Fold change /veh ORM1 (11744905_x_at) / RFU CCDC152 (11743942_at) / Fold change /veh CCDC152 (11743942_at) / RFU ECM1 (11717891_a_at) / Fold change /veh ECM1 (11717891_a_at) / RFU IL23R (11748794_a_at) / Fold change /veh IL23R (11748794_a_at) / RFU TNFAIP8L3 (11732012_x_at) / Fold change /veh TNFAIP8L3 (11732012_x_at) / RFU MBOAT4 (11741988_at) / Fold change /veh MBOAT4 (11741988_at) / RFU 11764193_at / Fold change /veh 11764193_at / RFU TMEM53 (11763286_at) / Fold change /veh TMEM53 (11763286_at) / RFU MAGEB2 (11727129_at) / Fold change /veh MAGEB2 (11727129_at) / RFU TMEM200A (11744735_a_at) / Fold change /veh TMEM200A (11744735_a_at) / RFU CCDC152 (11751479_a_at) / Fold change /veh CCDC152 (11751479_a_at) / RFU FAM211A (11726209_a_at) / Fold change /veh FAM211A (11726209_a_at) / RFU RGS16 (11746705_a_at) / Fold change /veh RGS16 (11746705_a_at) / RFU VCAN (11755009_s_at) / Fold change /veh VCAN (11755009_s_at) / RFU RHOB (11743442_s_at) / Fold change /veh RHOB (11743442_s_at) / RFU RGS16 (11720943_a_at) / Fold change /veh RGS16 (11720943_a_at) / RFU RGS16 (11720944_at) / Fold change /veh RGS16 (11720944_at) / RFU, VPS4B / Fold change vs veh, VPS4B / RFU, CREB1 / Fold change vs veh, CREB1 / RFU, DNAJC13 / Fold change vs veh, DNAJC13 / RFU, GNAQ / Fold change vs veh, GNAQ / RFU, CDK5R1 / Fold change vs veh, CDK5R1 / RFU, ZRANB3 / Fold change vs veh, ZRANB3 / RFU, CUL4A / Fold change vs veh, CUL4A / RFU, CCNY / Fold change vs veh, CCNY / RFU, UFL1 / Fold change vs veh, UFL1 / RFU, COG3 / Fold change vs veh, COG3 / RFU, DIAPH2 / Fold change vs veh, DIAPH2 / RFU, SKA2 / Fold change vs veh, SKA2 / RFU, AFF3 / Fold change vs veh, AFF3 / RFU, LMF1 / Fold change vs veh, LMF1 / RFU, IPO11 / Fold change vs veh, IPO11 / RFU, DFFB / Fold change vs veh, DFFB / RFU, FOXP1 / Fold change vs veh, FOXP1 / RFU, CARD8 / Fold change vs veh, CARD8 / RFU, STRN3 / Fold change vs veh, STRN3 / RFU, ADK / Fold change vs veh, ADK / RFU, RASSF2 / Fold change vs veh, RASSF2 / RFU, WIPF1 / Fold change vs veh, WIPF1 / RFU, LARP1B / Fold change vs veh, LARP1B / RFU, RASA1 / Fold change vs veh, RASA1 / RFU, RB1 / Fold change vs veh, RB1 / RFU, PPFIA1 / Fold change vs veh, PPFIA1 / RFU, MAT2A / Fold change vs veh, MAT2A / RFU, CCT5 / Fold change vs veh, CCT5 / RFU, WDR92 / Fold change vs veh, WDR92 / RFU, CUX1 / Fold change vs veh, CUX1 / RFU, TTC7A / Fold change vs veh, TTC7A / RFU, TMEM135 / Fold change vs veh, TMEM135 / RFU, DEPTOR / Fold change vs veh, DEPTOR / RFU, CPM / Fold change vs veh, CPM / RFU, DNAJB6 / Fold change vs veh, DNAJB6 / RFU, CACNA2D3 / Fold change vs veh, CACNA2D3 / RFU, DTX4 / Fold change vs veh, DTX4 / RFU, TFCP2 / Fold change vs veh, TFCP2 / RFU, GMCL1 /// GMCL1P1 / Fold change vs veh, GMCL1 /// GMCL1P1 / RFU, AEBP2 / Fold change vs veh, AEBP2 / RFU, SNHG1 /// SNORD22 /// SNORD25 /// SNORD26 /// SNORD27 /// SNORD28 /// SNORD29 /// SNORD31 / Fold change vs veh, SNHG1 /// SNORD22 /// SNORD25 /// SNORD26 /// SNORD27 /// SNORD28 /// SNORD29 /// SNORD31 / Fold change (Aza/veh), C12orf56 (ProbeSet 11735607_a_at) / Fold change (ACY-1035/veh), C12orf56 (ProbeSet 11735607_a_at) / Fold change (Aza/veh), FGFR1OP (ProbeSet 11751329_s_at) / Fold change (ACY-1035/veh), FGFR1OP (ProbeSet 11751329_s_at) / Fold change (Aza/veh), VPS36 (ProbeSet 11739960_a_at) / Fold change (ACY-1035/veh), VPS36 (ProbeSet 11739960_a_at) / RFU SYPL1 (11715823_x_at) / Fold change /veh SYPL1 (11715823_x_at) / RFU IGFBP7 (11715501_s_at) / Fold change /veh IGFBP7 (11715501_s_at) / RFU REEP3 (11722064_at) / Fold change /veh REEP3 (11722064_at) / RFU IGLL1 (11728026_x_at) / Fold change /veh IGLL1 (11728026_x_at): dose or concentration left out as unconfirmed", "conditions": "ProbeSet 11721611_a_at; LIST D", "data": [{"smiles": "Nc1ncn([C@@H]2O[C@H](CO)[C@@H](O)[C@H]2O)c(=O)n1", "note": "[azacitidine]", "values": [{"measurement": "RFU, IPO11", "result": 64.89, "unit": "RFU"}]}]}
